Experimental data from patent US20210024499A1, “OXIDIZED BIS(3-INDOLYL)METHANES AND USES THEREOF” (Sanford Burnam Prebys Medical Discovery Institute, priority 2018, published 2021).

How the values were obtained:
HCT116 cancer cells = test: Cell viability (MTT) assay, HCT116; format: cell-based; conditions: Homo sapiens, HCT-116; inhibiting the growth of HCT116 cancer cells, cell viability assay (Table 5)
Protocol: Cell viability was analyzed by using a colorimetric 3-(4,5-dimethylthiazol-[…]2-yl)-2,5-diphenyletetrazolium Bromide (MTT) assay that determines mitochondrial dehydrogenase activities in the living cells with a colorimetric method. Cells treated with test compounds were incubated with MTT and their effect on the viability of the cells was assayed by the ability of treated cells to reduce the yellow tetrazolium dye MTT to its insoluble formazan, which has a purple color. […]

Bcl-2−/−HeLa cells [1] = test: Mitochondrial membrane potential (JC1), Bcl-2-/- cells of the MEF study; format: cell-based; conditions: Bcl-2−/−HeLa cells as printed, 0.5 μM, 6 h
Protocol: (§1) Loss of mitochondrial membrane potential (Avm) represents one of the hallmarks of apoptosis. A JC-1 probe was employed to measure mitochondrial depolarization in cancer cells. MDA-MB-231 breast cancer cells were treated with different concentration of test compounds for 6 hours. JC-1 staining solution (5 μg/ml) was added at 37° C. for 20 min. After washing with PBS twice, mitochondrial membrane potentials were monitored by determining the relative amounts of dual emission from a multiple fluorescence reader. The fluorescence in cells was quantitatively analyzed by flow cytometry. Mitochondrial depolarization is depicted by an increase in the green/red fluorescence intensity ratio. ROS were monitored with the oxiadtion-senstive fluorescent probe 2′7′-dichlorodihydroflurescenin diacetate (DCF-DA).
In addition, Bcl-2^−/−MEF cells were more resistant than the parental MEF cells to Compound 1 in its induction of the mitochondrial membrane potential loss measured by JC1 staining and in the release of mitochondrial ROS (as performed in Example A-12).

Nur77−/−MEFs [2] = test: Cell viability (MTT), Nur77-/- MEFs; format: cell-based, mouse; conditions: 6 hours, MTT (FIG. 8)
Protocol: Cell viability was analyzed by using a colorimetric 3-(4,5-dimethylthiazol-[…]2-yl)-2,5-diphenyletetrazolium Bromide (MTT) assay that determines mitochondrial dehydrogenase activities in the living cells with a colorimetric method. Cells treated with test compounds were incubated with MTT and their effect on the viability of the cells was assayed by the ability of treated cells to reduce the yellow tetrazolium dye MTT to its insoluble formazan, which has a purple color.
(§2) The apoptotic effect of Compound 1 was examined in mouse embryonic fibroblast (MEF) and MEF lacking Nur77 (Nur77^−/−MEF). […] Induction of PARP cleavage (as performed in Example A-7) in MEFs by Compound 1 at 0.5 μM was also attenuated in Nur77^−/−MEFs.

Nur77−/−MEFs [3] = test: PARP cleavage, Nur77-/- MEFs; format: cell-based, mouse; conditions: 0.5 μM
Protocol: as §2

HCT116 cells = test: PARP cleavage assay (Western blotting), HCT116; format: cell-based; conditions: 6 hours
Text: Compound 1a had no effect under the same conditions (FIG. 1A). […] Compound 1a, 28a, 47a, 48a, 73a, 39a, 70a, 103a, 89a and 88a had no effect under the same conditions (FIG. 3B-C).

MDA-MB-231 cells [4] = test: Flow cytometry-based Annexin V/PI apoptosis assay, MDA-MB-231; format: cell-based; conditions: 1 μM, 6 hours
Nur77−/−HeLa cells = test: PARP cleavage and caspase 3 activation, Nur77 knockout HeLa; format: cell-based
Protocol: (§3) Knocking out Nur77 and Bcl-2 from HeLa cells employed the CRISPR/Cas9 system. gRNA targeting sequence of Nur77 (5′-[…]-3′) and Bcl-2 (5′-[…]-3′) was cloned into gRNA cloning vector Px330 (Addgene, 71707) and confirmed by sequencing. To screen for cells lacking Nur77 or Bcl-2, HeLa cells were transfected with control vector and gRNA expression vectors, followed by G418 selection (0.5mg/m1). Single colonies were subjected to Western blotting using anti-Nur77 and anti-Bcl-2 antibody to select knockout cells.
The apoptotic effect of Compound lwas also evaluated in Nur77 genome knockout HeLa cells generated by CRISPR/Cas9 technology (Example A-5).

[5] = test system: HEK293T cells transfected with Nur77-LBD; test: Apoptosis in HEK293T cells transfected with Nur77-LBD (confocal microscopy); format: cell-based
Text: The ligand-binding domain (LBD) of Nur77, Nur77-LBD, was transfected into HEK293T cells. Transfection of Nur77-LBD enhanced the apoptotic effect of Compound 1, with 36% of the transfected HEK293T cells undergoing apoptosis, while 4.5% of the non-transfected cells were apoptotic, as measured by confocal microscopy.

Nur77 = molecular target: T1, Nur77 (Homo sapiens, UniProt P22736); test: Immunostaining of Nur77 localization, HCT116; format: cell-based; conditions: HCT116 cells, 0.5 μM, 2 hours
T1 construct: expressed in transfected cells
T1 sequence (P22736 whole entry): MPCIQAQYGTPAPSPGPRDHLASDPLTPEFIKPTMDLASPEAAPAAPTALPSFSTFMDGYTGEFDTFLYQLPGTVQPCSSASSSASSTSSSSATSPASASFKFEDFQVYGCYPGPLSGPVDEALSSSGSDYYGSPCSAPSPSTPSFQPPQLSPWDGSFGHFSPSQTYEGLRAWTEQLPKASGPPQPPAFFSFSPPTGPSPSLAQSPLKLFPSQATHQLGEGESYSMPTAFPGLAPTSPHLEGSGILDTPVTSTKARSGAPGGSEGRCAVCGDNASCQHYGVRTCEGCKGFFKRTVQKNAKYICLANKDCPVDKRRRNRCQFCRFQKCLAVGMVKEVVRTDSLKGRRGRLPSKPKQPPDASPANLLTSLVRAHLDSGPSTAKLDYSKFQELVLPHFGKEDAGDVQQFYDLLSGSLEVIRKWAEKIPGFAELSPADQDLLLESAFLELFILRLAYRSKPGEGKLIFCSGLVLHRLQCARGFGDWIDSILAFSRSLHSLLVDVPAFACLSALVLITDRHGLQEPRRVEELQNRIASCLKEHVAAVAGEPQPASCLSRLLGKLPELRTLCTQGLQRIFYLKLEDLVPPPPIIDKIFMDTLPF
Protocol: Cells were fixed in 3.7% paraformaldehyde. For mitochondrial staining, cells were incubated with anti-Hsp60 goat immunoglobulin G (IgG) (Santa Cruz Biotechnology, Santa Cruz, Calif.), followed by anti-goat IgG conjugated with Cy3. The nuclei were visualized by DAPI staining. Fluorescent images were collected and analyzed by using a fluorescence microscopy or MRC-1024 MP laser-scanning confocal microscope (Bio-Rad, Hercules, Calif.).
To confirm the effect of Compound 1 on Nur77 cytoplasmic localization, HEK293T cells were transfected with GFP-Nur77 and subsequently treated with 0.5 μM Compound 1.

MDA-MB-231 cells [6] = test: Mitochondrial ROS, MDA-MB-231; format: cell-based; conditions: dose dependent, 6 hours
Protocol: as §1

Bcl-2−/−HeLa cells [7] = test: PARP cleavage and caspase 3 activation, Bcl-2 knockout HeLa; format: cell-based
Protocol: as §3
The apoptotic effect of Compound lwas also evaluated in Bcl-2 genome knockout HeLa cells generated by CRISPR/Cas9 technology (Example A-5).

SW480 cells = test: DAPI staining for apoptosis, SW480; format: cell-based; conditions: 0.5 μM, 6 hours, counted in 200 cells
Protocol: In SW480 cells, about 60% apoptotic cells were detected when cells were treated with Compound 1 compared to less than 5% when cells were not treated with Compound 1. Apoptotic cells were counted in 200 cells.

Bcl-2−/−HeLa cells [8] = test: Mitochondrial membrane potential (JC1), Bcl-2 knockout HeLa; format: cell-based; conditions: 0.5 μM, 6 h
Protocol: as §1
In addition, Bcl-2^−/−HeLa cells were more resistant than the parental HeLa cells to Compound 1 in its induction of the mitochondrial membrane potential loss measured by JC1 staining and in the release of mitochondrial ROS (as performed in Example A-12).

IC50 (HCT116 cancer cells): < 500 nM
Nur77 subcellular localization (immunostaining) (Nur77): predominantly cytoplasmic
Structure (SMILES): FC(F)(F)c1ccc([C+](c2c[nH]c3ccccc23)c2c[nH]c3ccccc23)cc1 [Compound 1, Bis(1H-indol-3-yl)(4-(trifluoromethyl)phenyl)methylium methanesulfonate]
JC1 green to red ratio (control 100%) (Bcl-2−/−HeLa cells [1]): 150%
growth inhibitory effect relative to MEFs (Nur77−/−MEFs [2]): significantly diminished
induction of PARP cleavage relative to MEFs (Nur77−/−MEFs [3]): attenuated
PARP cleavage (HCT116 cells; 0.5 μM, Western blotting): effectively induced PARP cleavage
concentration inducing PARP cleavage (dose dependent study) (HCT116 cells): submicromolar concentrations
apoptotic cells (Annexin V/PI) (MDA-MB-231 cells [4]): about 31.63%
induction of PARP cleavage and caspase 3 activation (Nur77−/−HeLa cells): strongly suppressed
cells undergoing apoptosis [5]: 36%
intracellular mitochondrial reactive oxygen species (mito-ROS) (MDA-MB-231 cells [6]): marked increase
induction of PARP cleavage and caspase 3 activation (Bcl-2−/−HeLa cells [7]): strongly suppressed
apoptotic cells (DAPI staining) (SW480 cells): about 60%
JC1 green to red ratio (Bcl-2−/−HeLa cells [8]): no change
